Source: patent US9492468B2, “Methods and compositions for treatment of acute heart failure” (PERICOR THERAPEUTICS, INC., priority 2008, dated 2016)
Where a name gives a salt, the structure may show the parent alone.

Tested on: dogs with advanced heart failure
Experiment: Single-dose 6 hours infusion study, hemodynamic, ventriculographic, echocardiographic, MVO2 and P-V loop measures
Type: in vivo, dog
Experimental: Studies were performed in purpose-bred, healthy and conditioned mongrel dogs weighing between 20 and 30 kg. The study was approved by Henry Ford Health System Institutional Animal Care and Use Committee and conformed to the National Institute of Health “Guide and Care for Use of Laboratory Animals” and the “Position of the American Heart Association on Research Animal Use” (Position of the American Heart Association on Research Animal Use. Circulation 1985; 71; 49A-50A).
Chronic LV dysfunction and failure was produced by multiple sequential intracoronary embolizations with polystyrene Latex; coronary microembolizations were performed during cardiac catheterization under general anesthesia and sterile conditions (Sabbah H N, et al. Am J Physiol (1991) 260:H1379-84; Sabbah H N, et al. Circulation (1994) 89:2852-9; Sabbah H N, et al. Am J Cardiol 99:41 A-46A, (2007)). Anesthesia was induced using a combination of intravenous injections of oxymorphone hydrochloride (0.22 mg/kg) and diazepam (0.2-0.6 mg/kg). Plane of anesthesia was maintained throughout the study using 1% to 2% isoflurane. Left and right heart catheterizations were performed via a femoral arteriotomy and venotomy. Coronary microembolizations were discontinued when LV ejection fraction, determined angiographically, was about 25%. A period of 2 weeks was allowed after the last microembolization to ensure that infarctions produced by the last microembolizations have completely healed and heart failure was established before the study is undertaken.
Six heart failure dogs described in Example 1 were used. Studies using active drug and placebo were performed in each dog in random order a minimum of one week apart. After baseline hemodynamic, angiographic and echocardiographic measurements, GP-531 tartrate or placebo was administered as a continuous constant intravenous infusion for 6 hours. The dose of GP-531 tartrate was 10 μg/kg/min. Complete hemodynamic, angiographic and echocardiographic measurements were made during baseline, and at 1, 2, 3, 4, 5 and 6 hours after initiating drug infusion. In addition, myocardial oxygen consumption (MVO2) was measured at baseline and 4 and 6 hours after initiating drug or saline infusion. LV pressure-volume relationships (P-V Loops) were also measured at baseline and at 6 hours after initiating drug or saline infusion to assess load independent contractility and relaxation. Venous blood samples were obtained at baseline and hourly thereafter. Blood samples (at least […]) were centrifuged at 3000 rpm for 10 minutes and plasma withdrawn and placed in cryostorage tubes and stored upright at −20° C. until needed. Venous blood samples were used to evaluate plasma levels of troponin-I and plasma levels of n-terminal pro-brain natriuretic peptide (NT-proBNP).
Study Primary End-Points were: (1) change in LV ejection fraction determined from ventriculography; (2) change in LV end-systolic and end-diastolic volume determined from ventriculography; (3) change in MVO2; and (4) change in the slope of the LV end-systolic and end-diastolic P-V relationship.
All hemodynamic measurements were made during left and right heart catheterizations in anesthetized dogs at each specified study time point. Heart rate (HR), mean aortic pressure (mAoP), LV end-diastolic pressure (LVEDP), stroke volume (SV), cardiac output (CO) and systemic vascular resistance (SVR) were measured at each study time point. Left ventriculograms were performed during cardiac catheterization after completion of the hemodynamic measurements. Left ventriculograms were obtained with the dog placed on its right side and digitally recorded during the injection of 20 ml of contrast material (RENO-M-60 Squibb, Princeton, N.J.). Correction for image magnification was made using a radiopaque grid placed at the level of the LV. […]

[1] = HF dogs n=6, iv 10 μg/kg/min for 6 h
[2] = HF dogs n=6, iv 10 μg/kg/min for 6 h, vs baseline
[3] = HF dogs n=6, iv 10 μg/kg/min constant infusion, 1 h
[4] = HF dogs n=6, iv 10 μg/kg/min constant infusion, 2 h
[5] = HF dogs n=6, iv 10 μg/kg/min constant infusion, 3 h
[6] = HF dogs n=6, iv 10 μg/kg/min constant infusion, 4 h
[7] = HF dogs n=6, iv 10 μg/kg/min constant infusion, 5 h
[8] = HF dogs n=6, iv 10 μg/kg/min constant infusion, 6 h
[9] = HF dogs n=6, iv 10 μg/kg/min for 6 h, time-dependent

For `NC(=O)c1ncn(C2OC(CNCc3ccccc3)C(O)C2O)c1N` [GP-531, 5-amino-1-β-D-(5-benzylamino-5-deoxy-1-β-D-ribofuranosyl)imidazole-4 carboxamide], the “Time after initiating drug infusion at which improvements (EDV, ESV, EF, FAS) occurred” value (HF dogs n=6, iv 10 μg/kg/min) was 1 to 3 h, the Acute decompensation [1] was “None of the dogs treated with GP-531 developed acute decompensation” and the “Changes in MVO2” value [1] was “absence of any changes”. The Death [1] was “none died”, the “Effect on peak +dP/dt” value [1] was “no significant effects” and the “Effect on peak −dP/dt” value [1] was “no significant effects”. For the same molecule, the “Effect on LVEDP” value (HF dogs n=6, iv 10 μg/kg/min for 6 h, time-dependent, significance at 5 hours) was “significantly decreased”, the “Effect on CO” value [2] was “significant increase” and the “Effect on EDV” value [2] was “modest but statistically significant effect on reducing”. The “Effect on EF (LVEF)” value [2] was “increased”, the “Effect on ESV” value [2] was “significantly decreased” and the “Effect on FAS” value [2] was “increased”. For the same molecule, the “Effect on SV” value [2] was “significant increase”, the “Effect on SVR” value [2] was “decrease” and the “Effect on slope of the ESPVR” value (HF dogs n=6, iv 10 μg/kg/min, 6 h vs baseline) was “significantly increased”.

In the case of `NC(=O)c1ncn(C2OC(CNCc3ccccc3)C(O)C2O)c1N` (centres unmarked) [GP-531 tartrate], the “Cardiac output (CO)” value [3] is reported as 1.42 ± 0.08 L/min, the “Deceleration time of early mitral inflow velocity (DCT)” value (“Deceleration time” below) [3] is reported as 100 ± 5 ms and the “Ei/Ai (ratio of mitral inflow time-velocity integrals)” value [3] is reported as 1.78 ± 0.23. For the same molecule, the “Heart rate (HR)” value [3] was 78 ± 1 beats/min, the “LV end-diastolic circumferential wall stress (EDWS)” value [3] was 53 ± 7 gm/cm^2 and the “LV end-diastolic pressure (LVEDP)” value [3] was 12 ± 1.1 mmHg. The “LV end-diastolic volume (EDV)” value [3] was 64 ± 2 mL, the “LV end-systolic volume (ESV)” value [3] was 46 ± 2 mL and the “LV fractional area of shortening (FAS)” value [3] was 26 ± 0.8%. For the same molecule, the “Mean aortic pressure (mAoP)” value [3] was 77 ± 3 mmHg, the “PE/PA (ratio of peak mitral flow velocities)” value [3] was 1.7 ± 0.10 and the “Stroke volume (SV)” value [3] was 18 ± 1.0 mL. The “Systemic vascular resistance (SVR)” value [3] was 4368 ± 248 dynes-sec-cm^−5, the “Cardiac output (CO)” value [4] was 1.47 ± 0.11 L/min and the “Deceleration time” value [4] was 109 ± 4 ms. The “Ei/Ai (ratio of mitral inflow time-velocity integrals)” value [4] was 2.03 ± 0.23, the “Heart rate (HR)” value [4] was 78 ± 2 beats/min and the “LV end-diastolic circumferential wall stress (EDWS)” value [4] was 47 ± 5 gm/cm^2. The “LV end-diastolic pressure (LVEDP)” value [4] was 12 ± 0.9 mmHg, the “LV end-diastolic volume (EDV)” value [4] was 63 ± 2 mL and the “LV end-systolic volume (ESV)” value [4] was 44 ± 2 mL. The “LV fractional area of shortening (FAS)” value [4] was 27 ± 1.3 %, the “Mean aortic pressure (mAoP)” value [4] was 77 ± 3 mmHg and the “PE/PA (ratio of peak mitral flow velocities)” value [4] was 1.8 ± 0.10. For the same molecule, the “Stroke volume (SV)” value [4] was 19 ± 1.2 mL, the “Systemic vascular resistance (SVR)” value [4] was 4250 ± 327 dynes-sec-cm^−5 and the “Cardiac output (CO)” value [5] was 1.53 ± 0.08 L/min. For the same molecule, the “Deceleration time” value [5] was 113 ± 6 ms, the “Ei/Ai (ratio of mitral inflow time-velocity integrals)” value [5] was 2.40 ± 0.29 and the “Heart rate (HR)” value [5] was 79 ± 3 beats/min. For the same molecule, the “LV end-diastolic circumferential wall stress (EDWS)” value [5] was 47 ± 6 gm/cm^2, the “LV end-diastolic pressure (LVEDP)” value [5] was 12 ± 1.1 mmHg and the “LV end-diastolic volume (EDV)” value [5] was 63 ± 2 mL. The “LV end-systolic volume (ESV)” value [5] was 44 ± 2 mL, the “LV fractional area of shortening (FAS)” value [5] was 29 ± 0.9 % and the “Mean aortic pressure (mAoP)” value [5] was 79 ± 3 mmHg. The “PE/PA (ratio of peak mitral flow velocities)” value [5] was 1.9 ± 0.07, the “Stroke volume (SV)” value [5] was 19 ± 0.8 mL and the “Systemic vascular resistance (SVR)” value [5] was 4157 ± 212 dynes-sec-cm^−5. For the same molecule, the “Cardiac output (CO)” value [6] was 1.63 ± 0.05 L/min, the “Deceleration time” value [6] was 113 ± 5 ms and the “Ei/Ai (ratio of mitral inflow time-velocity integrals)” value [6] was 2.51 ± 0.21. The “Heart rate (HR)” value [6] was 80 ± 3 beats/min, the “LV end-diastolic circumferential wall stress (EDWS)” value [6] was 44 ± 7 gm/cm^2 and the “LV end-diastolic pressure (LVEDP)” value [6] was 11 ± 1.2 mmHg. The “LV end-diastolic volume (EDV)” value [6] was 63 ± 2 mL, the “LV end-systolic volume (ESV)” value [6] was 42 ± 2 mL and the “LV fractional area of shortening (FAS)” value [6] was 31 ± 1.5 %. The “Mean aortic pressure (mAoP)” value [6] was 79 ± 3 mmHg, the “Myocardial oxygen consumption (MVO2)” value [6] was 114 ± 14 μmols/min and the “PE/PA (ratio of peak mitral flow velocities)” value [6] was 2.1 ± 0.09. The “Stroke volume (SV)” value [6] was 21 ± 0.9 mL, the “Systemic vascular resistance (SVR)” value [6] was 3895 ± 168 dynes-sec-cm^−5 and the “Cardiac output (CO)” value [7] was 1.64 ± 0.07 L/min. For the same molecule, the “Deceleration time” value [7] was 118 ± 6 ms, the “Ei/Ai (ratio of mitral inflow time-velocity integrals)” value [7] was 2.68 ± 0.23 and the “Heart rate (HR)” value [7] was 79 ± 4 beats/min. The “LV end-diastolic circumferential wall stress (EDWS)” value [7] was 43 ± 7 gm/cm^2, the “LV end-diastolic pressure (LVEDP)” value [7] was 11 ± 1.2 mmHg and the “LV end-diastolic volume (EDV)” value [7] was 62 ± 2 mL. For the same molecule, the “LV end-systolic volume (ESV)” value [7] was 41 ± 2 mL, the “LV fractional area of shortening (FAS)” value [7] was 31 ± 1.4 % and the “Mean aortic pressure (mAoP)” value [7] was 77 ± 2 mmHg. The “PE/PA (ratio of peak mitral flow velocities)” value [7] was 2.2 ± 0.05, the “Stroke volume (SV)” value [7] was 21 ± 1.1 mL and the “Systemic vascular resistance (SVR)” value [7] was 3823 ± 221 dynes-sec-cm^−5. The “Cardiac output (CO)” value [8] was 1.69 ± 0.04 L/min, the “Deceleration time” value [8] was 118 ± 4 ms and the “Ei/Ai (ratio of mitral inflow time-velocity integrals)” value [8] was 2.77 ± 0.23. For the same molecule, the “Heart rate (HR)” value [8] was 81 ± 4 beats/min, the “LV end-diastolic circumferential wall stress (EDWS)” value [8] was 41 ± 7 gm/cm^2 and the “LV end-diastolic pressure (LVEDP)” value [8] was 10 ± 1.2 mmHg. For the same molecule, the “LV end-diastolic volume (EDV)” value [8] was 62 ± 2 mL, the “LV end-systolic volume (ESV)” value [8] was 41 ± 2 mL and the “LV fractional area of shortening (FAS)” value [8] was 32 ± 1.1 %. For the same molecule, the “Mean aortic pressure (mAoP)” value [8] was 76 ± 3 mmHg, the “Myocardial oxygen consumption (MVO2)” value [8] was 115 ± 12 μmols/min and the “PE/PA (ratio of peak mitral flow velocities)” value [8] was 2.2 ± 0.06. For the same molecule, the “Slope of end-diastolic pressure-volume relation (EDPVR)” value [8] was 0.296 ± 0.018 mmHg/ml, the “Slope of end-systolic pressure volume relation (ESPVR)” value [8] was 2.43 ± 0.35 mmHg/ml and the “Stroke volume (SV)” value [8] was 21 ± 0.8 mL. The “Systemic vascular resistance (SVR)” value [8] was 3571 ± 113 dynes-sec-cm^−5, the “Ventricular or atrial arrhythmias” value [1] was “did not evoke any ventricular or atrial arrhythmias” and the “Effect on DCT” value [9] was “increased”. The “Effect on EDWS” value [9] was “decreased significantly”, the “Effect on Ei/Ai” value [9] was “increased significantly” and the “Effect on PE/PA” value [9] was “increased significantly”. For the same molecule, the “Effect on HR” value [2] was “no effect”, the “Effect on mAoP” value [2] was “no effect” and the “Effect on EF (LVEF)” value (HF dogs n=6, iv 10 μg/kg/min for 6 h, vs baseline, listed as GP-531 tartrate salt) was “increase”. For the same molecule, the “Effect on slope of the EDPVR” value (HF dogs n=6, iv 10 μg/kg/min, 6 hours, not statistically significant) was “tended to decrease” and the “LV systolic and diastolic function” value (HF dogs, iv 10 μg/kg/min for 6 hours) was “can improve both LV systolic and diastolic function”.
